# pIC50: −log10 of the molar value.
# How the values were obtained:
# MRP2 = biological target: T1, MRP2 (Homo sapiens, UniProt Q92887); assay: Inhibition of ATP-dependent probe uptake in Sf9 membrane vesicles; assay type: in vitro ADME; settings: MRP2-mediated ATP-dependent uptake of ethacrynic acid glutathione conjugate
# T1 construct: purchased Thermo Fisher Scientific; host or cells: Sf9
# [1] = biological target: T2, recombinant human adenosine deaminase (ADA) (Homo sapiens, UniProt P00813); assay: Metabolism and enzyme kinetics with recombinant human ADA; assay type: in vitro ADME
# T2 construct: purchased Novus Biologicals, LLC
# MATE2K = biological target: T3, MATE2K (Homo sapiens, UniProt Q86VL8); assay: Inhibition of transporter-mediated probe uptake in MDCKII-MATE2K cells; assay type: in vitro ADME
# T3 construct: expressed in transfected cells; host or cells: MDCKII
# [2] = Metabolism in human intestinal S9 fraction; assay type: in vitro ADME; settings: [3H]islatravir 5 µM, M4 the only metabolite detected
# MATE1 = biological target: T4, MATE1 (Homo sapiens, UniProt Q96FL8); assay: Inhibition of transporter-mediated probe uptake in CHO-K1-MATE1 cells; assay type: in vitro ADME
# T4 construct: expressed in transfected cells; host or cells: CHO-K1
# T4 sequence (Q96FL8 1-570): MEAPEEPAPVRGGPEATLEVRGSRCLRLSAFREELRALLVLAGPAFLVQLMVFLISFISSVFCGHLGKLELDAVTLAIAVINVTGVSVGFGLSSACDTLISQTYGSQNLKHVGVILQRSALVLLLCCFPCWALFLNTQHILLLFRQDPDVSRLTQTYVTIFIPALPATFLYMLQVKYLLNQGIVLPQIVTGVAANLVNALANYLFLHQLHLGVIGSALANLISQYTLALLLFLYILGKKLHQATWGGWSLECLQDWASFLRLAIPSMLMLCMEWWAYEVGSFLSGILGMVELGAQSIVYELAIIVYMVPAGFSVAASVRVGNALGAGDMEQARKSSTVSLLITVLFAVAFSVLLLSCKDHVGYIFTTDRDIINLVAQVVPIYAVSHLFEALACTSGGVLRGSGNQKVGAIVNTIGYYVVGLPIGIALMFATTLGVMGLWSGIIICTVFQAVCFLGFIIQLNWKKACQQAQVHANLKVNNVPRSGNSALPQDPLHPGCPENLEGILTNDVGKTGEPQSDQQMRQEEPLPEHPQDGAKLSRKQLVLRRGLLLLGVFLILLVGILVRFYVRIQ
# MDR1 P-gp [3] = biological target: T5, MDR1 P-gp (Homo sapiens, UniProt P08183); assay type: in vitro ADME; set-up: expressed in transfected cells; host or cells: LLC-PK1
# OAT3 = biological target: T6, OAT3 (Homo sapiens, UniProt Q8TCC7); assay: Islatravir uptake as substrate, MDCKII vs MDCKII-OAT3 cells; assay type: in vitro ADME
# T6 construct: expressed in transfected cells; host or cells: MDCKII
# T6 sequence (Q8TCC7 1-542): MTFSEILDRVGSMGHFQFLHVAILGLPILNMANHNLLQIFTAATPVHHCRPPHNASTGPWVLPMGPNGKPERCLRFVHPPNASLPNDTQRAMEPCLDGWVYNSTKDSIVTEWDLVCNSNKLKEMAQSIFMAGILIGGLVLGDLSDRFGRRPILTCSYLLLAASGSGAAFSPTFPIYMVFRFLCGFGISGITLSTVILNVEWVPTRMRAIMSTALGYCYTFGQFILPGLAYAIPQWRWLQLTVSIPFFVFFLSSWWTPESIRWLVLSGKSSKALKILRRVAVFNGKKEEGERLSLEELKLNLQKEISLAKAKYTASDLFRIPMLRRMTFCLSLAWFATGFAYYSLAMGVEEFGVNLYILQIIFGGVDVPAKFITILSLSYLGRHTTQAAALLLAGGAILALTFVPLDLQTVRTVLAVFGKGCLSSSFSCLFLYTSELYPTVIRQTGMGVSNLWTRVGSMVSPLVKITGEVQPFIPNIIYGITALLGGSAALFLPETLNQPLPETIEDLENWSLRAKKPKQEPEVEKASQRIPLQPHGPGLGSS
# [4] = Plasma protein binding by equilibrium dialysis, rabbit plasma; assay type: in vitro ADME; settings: pH 7.4
# MDR1 P-gp [5] = biological target: T5, MDR1 P-gp; assay: Uptake in MDR1 P-gp-containing Sf9 membrane vesicles (substrate); assay type: in vitro ADME; set-up: expressed in transfected cells
# CYP2B6 = assay: CYP induction in cryopreserved human hepatocytes; settings: for mRNA Mean Fold Change ± SD CYP2B6: 48 h, n = 3 donors, vs DMSO vehicle
# OCT1 = biological target: T7, OCT1 (Homo sapiens, UniProt O15245); assay: Inhibition of transporter-mediated probe uptake in CHO-K1-OCT1 cells; assay type: in vitro ADME
# T7 construct: expressed in transfected cells; host or cells: CHO-K1
# T7 sequence (O15245 1-554): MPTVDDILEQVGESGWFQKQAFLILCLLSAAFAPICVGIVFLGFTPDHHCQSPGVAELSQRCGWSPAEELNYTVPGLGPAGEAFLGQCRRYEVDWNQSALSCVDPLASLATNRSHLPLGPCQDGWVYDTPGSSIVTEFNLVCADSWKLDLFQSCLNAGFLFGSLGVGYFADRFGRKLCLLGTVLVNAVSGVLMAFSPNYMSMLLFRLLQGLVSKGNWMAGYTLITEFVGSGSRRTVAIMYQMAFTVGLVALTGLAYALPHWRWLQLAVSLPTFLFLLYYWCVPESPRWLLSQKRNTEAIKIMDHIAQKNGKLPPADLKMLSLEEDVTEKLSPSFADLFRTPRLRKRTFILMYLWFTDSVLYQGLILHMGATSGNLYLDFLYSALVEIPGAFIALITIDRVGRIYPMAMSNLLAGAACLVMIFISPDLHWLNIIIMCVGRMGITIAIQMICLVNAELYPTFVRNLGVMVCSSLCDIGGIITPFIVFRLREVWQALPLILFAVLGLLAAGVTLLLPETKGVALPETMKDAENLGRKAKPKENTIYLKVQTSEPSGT
# [6] = [14C]islatravir 5 µM, presence of ATP, 10 min, mean ± standard deviation
# T5 sequence (P08183 whole entry): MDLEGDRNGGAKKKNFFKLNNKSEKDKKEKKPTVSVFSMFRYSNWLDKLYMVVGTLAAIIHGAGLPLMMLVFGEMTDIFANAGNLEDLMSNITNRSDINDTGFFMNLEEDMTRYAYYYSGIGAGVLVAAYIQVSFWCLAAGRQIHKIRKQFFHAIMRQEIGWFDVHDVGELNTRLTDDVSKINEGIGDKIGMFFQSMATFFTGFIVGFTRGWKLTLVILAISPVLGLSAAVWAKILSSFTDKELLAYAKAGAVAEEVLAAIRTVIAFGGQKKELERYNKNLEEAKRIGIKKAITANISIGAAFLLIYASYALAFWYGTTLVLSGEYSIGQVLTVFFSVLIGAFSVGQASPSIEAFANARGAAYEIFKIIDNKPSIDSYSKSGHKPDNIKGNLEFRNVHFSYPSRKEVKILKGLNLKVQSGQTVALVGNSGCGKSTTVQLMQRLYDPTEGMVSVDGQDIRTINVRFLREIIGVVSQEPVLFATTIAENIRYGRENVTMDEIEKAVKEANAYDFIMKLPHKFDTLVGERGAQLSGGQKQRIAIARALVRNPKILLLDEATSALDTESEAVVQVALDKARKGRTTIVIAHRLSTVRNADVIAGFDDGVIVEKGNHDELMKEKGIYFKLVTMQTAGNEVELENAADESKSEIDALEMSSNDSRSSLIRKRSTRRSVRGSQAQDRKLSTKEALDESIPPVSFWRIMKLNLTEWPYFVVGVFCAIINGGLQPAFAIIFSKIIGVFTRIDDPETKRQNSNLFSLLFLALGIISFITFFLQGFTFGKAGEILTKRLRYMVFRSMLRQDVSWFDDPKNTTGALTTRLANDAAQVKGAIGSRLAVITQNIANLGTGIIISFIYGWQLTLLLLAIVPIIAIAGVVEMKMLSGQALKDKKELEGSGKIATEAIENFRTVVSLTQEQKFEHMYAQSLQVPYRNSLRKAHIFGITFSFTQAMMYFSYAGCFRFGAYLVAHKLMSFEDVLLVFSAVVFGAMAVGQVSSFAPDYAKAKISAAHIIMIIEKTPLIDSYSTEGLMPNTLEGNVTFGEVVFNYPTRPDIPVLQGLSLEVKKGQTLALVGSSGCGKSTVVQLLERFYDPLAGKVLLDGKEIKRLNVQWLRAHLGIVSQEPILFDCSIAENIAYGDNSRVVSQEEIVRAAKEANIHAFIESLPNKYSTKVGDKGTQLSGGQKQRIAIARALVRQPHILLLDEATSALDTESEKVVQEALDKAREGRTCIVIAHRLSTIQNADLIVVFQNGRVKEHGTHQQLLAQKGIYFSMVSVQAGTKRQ
# T3 sequence (Q86VL8 1-566 isoform Q86VL8-3): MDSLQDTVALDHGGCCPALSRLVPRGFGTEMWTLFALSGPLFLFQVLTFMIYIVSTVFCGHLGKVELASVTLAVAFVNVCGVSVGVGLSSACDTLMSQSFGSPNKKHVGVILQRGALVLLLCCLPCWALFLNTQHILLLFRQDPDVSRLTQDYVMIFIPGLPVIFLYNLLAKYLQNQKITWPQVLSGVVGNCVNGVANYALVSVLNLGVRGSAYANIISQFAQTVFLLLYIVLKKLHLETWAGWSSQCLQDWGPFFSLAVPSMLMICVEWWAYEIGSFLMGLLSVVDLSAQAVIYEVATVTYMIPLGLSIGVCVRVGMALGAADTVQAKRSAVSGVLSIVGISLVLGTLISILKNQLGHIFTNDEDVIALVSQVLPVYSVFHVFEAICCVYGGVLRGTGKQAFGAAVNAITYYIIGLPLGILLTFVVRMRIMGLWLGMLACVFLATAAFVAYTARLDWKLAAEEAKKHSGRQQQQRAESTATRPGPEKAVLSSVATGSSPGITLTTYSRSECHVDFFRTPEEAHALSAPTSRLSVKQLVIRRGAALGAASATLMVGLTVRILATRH
# T2 sequence (P00813 whole entry): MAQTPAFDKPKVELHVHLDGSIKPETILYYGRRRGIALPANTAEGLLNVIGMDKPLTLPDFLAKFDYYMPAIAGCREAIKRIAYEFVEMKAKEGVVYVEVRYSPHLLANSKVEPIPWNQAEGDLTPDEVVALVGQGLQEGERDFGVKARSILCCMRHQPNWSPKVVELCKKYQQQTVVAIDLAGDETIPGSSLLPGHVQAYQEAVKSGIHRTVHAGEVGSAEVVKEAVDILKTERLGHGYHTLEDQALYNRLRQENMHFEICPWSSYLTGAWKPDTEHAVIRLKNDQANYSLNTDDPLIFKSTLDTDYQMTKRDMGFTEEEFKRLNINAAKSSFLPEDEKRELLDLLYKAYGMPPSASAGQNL
# T1 sequence (Q92887 whole entry): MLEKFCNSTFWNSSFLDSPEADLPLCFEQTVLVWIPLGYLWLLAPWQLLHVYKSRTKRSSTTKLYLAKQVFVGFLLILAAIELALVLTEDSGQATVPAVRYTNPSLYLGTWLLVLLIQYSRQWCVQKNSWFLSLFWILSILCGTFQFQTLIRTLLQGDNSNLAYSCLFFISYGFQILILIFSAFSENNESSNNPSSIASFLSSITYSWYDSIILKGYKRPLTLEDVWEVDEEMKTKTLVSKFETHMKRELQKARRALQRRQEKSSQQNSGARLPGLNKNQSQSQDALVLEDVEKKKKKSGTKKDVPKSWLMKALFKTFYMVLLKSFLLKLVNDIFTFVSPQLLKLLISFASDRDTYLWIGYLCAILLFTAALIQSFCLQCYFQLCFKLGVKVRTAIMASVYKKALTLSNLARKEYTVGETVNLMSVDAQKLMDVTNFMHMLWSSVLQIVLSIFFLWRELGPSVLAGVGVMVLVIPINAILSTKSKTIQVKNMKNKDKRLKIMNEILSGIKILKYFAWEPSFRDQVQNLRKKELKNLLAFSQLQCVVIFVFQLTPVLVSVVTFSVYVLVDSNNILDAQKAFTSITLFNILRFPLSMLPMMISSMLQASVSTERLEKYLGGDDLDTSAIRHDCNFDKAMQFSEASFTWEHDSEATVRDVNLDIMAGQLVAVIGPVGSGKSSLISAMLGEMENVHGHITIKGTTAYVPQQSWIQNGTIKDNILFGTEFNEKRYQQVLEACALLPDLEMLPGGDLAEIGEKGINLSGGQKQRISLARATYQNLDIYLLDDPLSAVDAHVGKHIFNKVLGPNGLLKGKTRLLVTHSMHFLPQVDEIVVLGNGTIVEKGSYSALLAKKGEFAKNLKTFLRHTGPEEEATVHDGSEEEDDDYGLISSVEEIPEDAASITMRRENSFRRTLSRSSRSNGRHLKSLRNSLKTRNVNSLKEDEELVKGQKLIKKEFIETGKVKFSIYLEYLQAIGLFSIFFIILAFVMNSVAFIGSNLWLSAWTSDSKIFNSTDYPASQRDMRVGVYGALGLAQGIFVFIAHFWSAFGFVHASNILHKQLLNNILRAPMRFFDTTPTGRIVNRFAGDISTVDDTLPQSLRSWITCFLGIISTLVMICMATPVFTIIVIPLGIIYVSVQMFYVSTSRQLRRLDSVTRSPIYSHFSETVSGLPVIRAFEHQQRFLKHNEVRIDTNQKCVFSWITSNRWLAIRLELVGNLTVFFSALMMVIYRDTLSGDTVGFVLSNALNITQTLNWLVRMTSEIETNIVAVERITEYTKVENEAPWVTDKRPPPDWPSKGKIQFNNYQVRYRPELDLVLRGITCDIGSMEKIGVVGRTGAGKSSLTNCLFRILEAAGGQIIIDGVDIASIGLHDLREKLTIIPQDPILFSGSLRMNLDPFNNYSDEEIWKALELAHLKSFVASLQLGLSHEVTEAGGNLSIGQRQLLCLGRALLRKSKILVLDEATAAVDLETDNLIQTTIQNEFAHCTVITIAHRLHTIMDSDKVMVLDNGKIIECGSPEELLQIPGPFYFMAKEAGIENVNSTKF
smiles,measurement,setting,value
"C#C[C@]1(CO)O[C@@H](n2cnc3c(N)nc(F)nc32)C[C@@H]1O [Islatravir, 4′-Ethynyl-2-fluoro-2′-deoxyadenosine]",pIC50,MRP2,< 4.00
same,ADA-dependent deamination,"[1]; 50 µM, 3 h, 1 unit/mL recombinant human ADA",very slow ADA-dependent deamination to M4
same,Km,"[1]; M4 formation, linear over 1-250 µM islatravir, read-out: Michaelis constant [Km]",> 250 µM
same,DDI Potential,"MATE2K; MATE2K inhibition, FDA, EMA, PMDA guidance",Low risk
same,pIC50,"MATE2K; MATE2K, metformin uptake, read-out: Islatravir IC50",< 4.12
same,"Maximum Unbound Plasma Concentration (Imax,u) to IC50 Ratio","MATE2K; MATE2K, 60 mg, Cmax 1.01 µM, fu,p 0.96",<0.013 µM
same,turnover,[2],low turnover
same,pIC50,"MATE1; MATE1, metformin uptake, read-out: Islatravir IC50",< 4.12
same,"Maximum Unbound Plasma Concentration (Imax,u) to IC50 Ratio","MATE1; MATE1, 60 mg, Cmax 1.01 µM, fu,p 0.96",<0.013 µM
same,DDI Potential,"MATE1; MATE1 inhibition, FDA, EMA, PMDA guidance",Low risk
same,DDI Potential,"MDR1 P-gp [3]; MDR1 P-gp inhibition, FDA, EMA, PMDA guidance",Low risk
same,pIC50,"MDR1 P-gp [3]; MDR1 P-gp-mediated digoxin transport, read-out: Islatravir IC50",< 3.70
same,"Maximum Unbound Plasma Concentration (Imax,u) to IC50 Ratio","MDR1 P-gp [3]; MDR1 P-gp, 60 mg, Cmax 1.01 µM, fu,p 0.96",<5 nM
same,Intestinal Concentration (Igut) to IC50 Ratio,"MDR1 P-gp [3]; MDR1 P-gp, Igut = 60 mg/250 mL = 818 µM",<4.1 µM
same,Islatravir Uptake Transporter-Expressing Cells,"OAT3; MDCKII-OAT3, 1 µM [3H]islatravir, 5 min, mean ± SD, n = 3",0.85 ± 0.06 pmole/10^6 Cells
same,Fold-Difference,"OAT3; OAT3, uptake into transporter-expressing cells to control cells, 5 min",1.23
same,Islatravir Uptake Control Cells,"OAT3; OAT3 row, MDCKII control cells, 1 µM [3H]islatravir, 5 min, mean ± SD, n = 3",0.69 ± 0.07 pmole/10^6 Cells
same,Conclusions,OAT3; OAT3 substrate assessment,Non-substrate
same,"fraction unbound at 24 h, 0.1 µM",[4],> 0.84
same,uptake into control vesicles,MDR1 P-gp [5]; [6],5.7 ± 2.1 pmole/mg protein
same,uptake into membrane vesicles containing MDR1 P-gp,MDR1 P-gp [5]; [6],3.7 ± 1.3 pmole/mg protein
same,MDR1 P-gp substrate assessment,MDR1 P-gp [5]; uptake not ATP-dependent,not a substrate of MDR1 P-gp
same,mRNA Mean Fold Change ± SD CYP2B6,CYP2B6; 0.1 µM,0.5 ± 0.1
same,mRNA Mean Fold Change ± SD CYP2B6,CYP2B6; 0.5 µM,0.5 ± 0.2
same,mRNA Mean Fold Change ± SD CYP2B6,CYP2B6; 1 µM,0.7 ± 0.2
same,mRNA Mean Fold Change ± SD CYP2B6,CYP2B6; 5 µM,0.7 ± 0.1
same,mRNA Mean Fold Change ± SD CYP2B6,CYP2B6; 10 µM,0.9 ± 0.3
same,mRNA Mean Fold Change ± SD CYP2B6,CYP2B6; 20 µM,0.4 ± 0.3
same,mRNA response relative to positive control,"CYP2B6; CYP2B6, each tested concentration 0.1-20 µM",less than 20%
same,"enzyme activity, fold of solvent control","CYP2B6; CYP2B6 bupropion hydroxylation, all islatravir concentrations",≤ 1.1 fold
same,pIC50,"OCT1; OCT1-mediated uptake of metformin, read-out: Islatravir IC50",< 3.52
same,"Maximum Unbound Inlet Concentration (Iin,max,u) to IC50 Ratio","OCT1; OCT1, 60 mg dose",<0.035
same,DDI Potential,"OCT1; OCT1 inhibition, FDA, EMA, PMDA guidance",Low risk
